Data from ChEMBL document CHEMBL2177102, “Modulation of DNA repair by pharmacological inhibitors of the PIKK protein kinase family” (Bioorg Med Chem Lett, 2012).
Where “and” joins values, the source holds several entries; their conditions need not be identical. Equal values may be shown once. Each block holds one molecule with its values, some of them ahead of it.

Assays:
[1] = biological target: DNA-dependent protein kinase catalytic subunit (Mus musculus, UniProt P97313); experiment: Inhibition of DNA-PK in C57BL6 mouse endothelial cells; assay type: cell-based, Endothelial cell
[2] = biological target: T1, DNA-dependent protein kinase catalytic subunit (Homo sapiens, UniProt P78527); experiment: Inhibition of DNA-PK assessed as inhibition of p53 peptide phosphorylation
[3] = biological target: T1, DNA-dependent protein kinase catalytic subunit; experiment: Competitive inhibition of DNA-PK
[4] = biological target: T1, DNA-dependent protein kinase catalytic subunit; experiment: Inhibition of DNA-PK
[5] = biological target: Serine-protein kinase ATM (Homo sapiens, UniProt Q13315); experiment: Irreversible inhibition of ATM
[6] = Inhibition of PI3K
[7] = biological target: Heat shock protein HSP 90-beta (Homo sapiens, UniProt P08238); experiment: Inhibition of Hsp90
[8] = biological target: Serine/threonine-protein kinase ATR (Homo sapiens, UniProt Q13535); experiment: Inhibition of flag-tagged ATR expressed in HEK293T cells using PHAS-1 as substrate after 20 mins by autoradiography; design: species or system HEK-293T
[9] = biological target: T1, DNA-dependent protein kinase catalytic subunit; experiment: Inhibition of DNA-PK in human U1810 cells after 30 mins; assay type: cell-based

T1 sequence (P78527 whole entry): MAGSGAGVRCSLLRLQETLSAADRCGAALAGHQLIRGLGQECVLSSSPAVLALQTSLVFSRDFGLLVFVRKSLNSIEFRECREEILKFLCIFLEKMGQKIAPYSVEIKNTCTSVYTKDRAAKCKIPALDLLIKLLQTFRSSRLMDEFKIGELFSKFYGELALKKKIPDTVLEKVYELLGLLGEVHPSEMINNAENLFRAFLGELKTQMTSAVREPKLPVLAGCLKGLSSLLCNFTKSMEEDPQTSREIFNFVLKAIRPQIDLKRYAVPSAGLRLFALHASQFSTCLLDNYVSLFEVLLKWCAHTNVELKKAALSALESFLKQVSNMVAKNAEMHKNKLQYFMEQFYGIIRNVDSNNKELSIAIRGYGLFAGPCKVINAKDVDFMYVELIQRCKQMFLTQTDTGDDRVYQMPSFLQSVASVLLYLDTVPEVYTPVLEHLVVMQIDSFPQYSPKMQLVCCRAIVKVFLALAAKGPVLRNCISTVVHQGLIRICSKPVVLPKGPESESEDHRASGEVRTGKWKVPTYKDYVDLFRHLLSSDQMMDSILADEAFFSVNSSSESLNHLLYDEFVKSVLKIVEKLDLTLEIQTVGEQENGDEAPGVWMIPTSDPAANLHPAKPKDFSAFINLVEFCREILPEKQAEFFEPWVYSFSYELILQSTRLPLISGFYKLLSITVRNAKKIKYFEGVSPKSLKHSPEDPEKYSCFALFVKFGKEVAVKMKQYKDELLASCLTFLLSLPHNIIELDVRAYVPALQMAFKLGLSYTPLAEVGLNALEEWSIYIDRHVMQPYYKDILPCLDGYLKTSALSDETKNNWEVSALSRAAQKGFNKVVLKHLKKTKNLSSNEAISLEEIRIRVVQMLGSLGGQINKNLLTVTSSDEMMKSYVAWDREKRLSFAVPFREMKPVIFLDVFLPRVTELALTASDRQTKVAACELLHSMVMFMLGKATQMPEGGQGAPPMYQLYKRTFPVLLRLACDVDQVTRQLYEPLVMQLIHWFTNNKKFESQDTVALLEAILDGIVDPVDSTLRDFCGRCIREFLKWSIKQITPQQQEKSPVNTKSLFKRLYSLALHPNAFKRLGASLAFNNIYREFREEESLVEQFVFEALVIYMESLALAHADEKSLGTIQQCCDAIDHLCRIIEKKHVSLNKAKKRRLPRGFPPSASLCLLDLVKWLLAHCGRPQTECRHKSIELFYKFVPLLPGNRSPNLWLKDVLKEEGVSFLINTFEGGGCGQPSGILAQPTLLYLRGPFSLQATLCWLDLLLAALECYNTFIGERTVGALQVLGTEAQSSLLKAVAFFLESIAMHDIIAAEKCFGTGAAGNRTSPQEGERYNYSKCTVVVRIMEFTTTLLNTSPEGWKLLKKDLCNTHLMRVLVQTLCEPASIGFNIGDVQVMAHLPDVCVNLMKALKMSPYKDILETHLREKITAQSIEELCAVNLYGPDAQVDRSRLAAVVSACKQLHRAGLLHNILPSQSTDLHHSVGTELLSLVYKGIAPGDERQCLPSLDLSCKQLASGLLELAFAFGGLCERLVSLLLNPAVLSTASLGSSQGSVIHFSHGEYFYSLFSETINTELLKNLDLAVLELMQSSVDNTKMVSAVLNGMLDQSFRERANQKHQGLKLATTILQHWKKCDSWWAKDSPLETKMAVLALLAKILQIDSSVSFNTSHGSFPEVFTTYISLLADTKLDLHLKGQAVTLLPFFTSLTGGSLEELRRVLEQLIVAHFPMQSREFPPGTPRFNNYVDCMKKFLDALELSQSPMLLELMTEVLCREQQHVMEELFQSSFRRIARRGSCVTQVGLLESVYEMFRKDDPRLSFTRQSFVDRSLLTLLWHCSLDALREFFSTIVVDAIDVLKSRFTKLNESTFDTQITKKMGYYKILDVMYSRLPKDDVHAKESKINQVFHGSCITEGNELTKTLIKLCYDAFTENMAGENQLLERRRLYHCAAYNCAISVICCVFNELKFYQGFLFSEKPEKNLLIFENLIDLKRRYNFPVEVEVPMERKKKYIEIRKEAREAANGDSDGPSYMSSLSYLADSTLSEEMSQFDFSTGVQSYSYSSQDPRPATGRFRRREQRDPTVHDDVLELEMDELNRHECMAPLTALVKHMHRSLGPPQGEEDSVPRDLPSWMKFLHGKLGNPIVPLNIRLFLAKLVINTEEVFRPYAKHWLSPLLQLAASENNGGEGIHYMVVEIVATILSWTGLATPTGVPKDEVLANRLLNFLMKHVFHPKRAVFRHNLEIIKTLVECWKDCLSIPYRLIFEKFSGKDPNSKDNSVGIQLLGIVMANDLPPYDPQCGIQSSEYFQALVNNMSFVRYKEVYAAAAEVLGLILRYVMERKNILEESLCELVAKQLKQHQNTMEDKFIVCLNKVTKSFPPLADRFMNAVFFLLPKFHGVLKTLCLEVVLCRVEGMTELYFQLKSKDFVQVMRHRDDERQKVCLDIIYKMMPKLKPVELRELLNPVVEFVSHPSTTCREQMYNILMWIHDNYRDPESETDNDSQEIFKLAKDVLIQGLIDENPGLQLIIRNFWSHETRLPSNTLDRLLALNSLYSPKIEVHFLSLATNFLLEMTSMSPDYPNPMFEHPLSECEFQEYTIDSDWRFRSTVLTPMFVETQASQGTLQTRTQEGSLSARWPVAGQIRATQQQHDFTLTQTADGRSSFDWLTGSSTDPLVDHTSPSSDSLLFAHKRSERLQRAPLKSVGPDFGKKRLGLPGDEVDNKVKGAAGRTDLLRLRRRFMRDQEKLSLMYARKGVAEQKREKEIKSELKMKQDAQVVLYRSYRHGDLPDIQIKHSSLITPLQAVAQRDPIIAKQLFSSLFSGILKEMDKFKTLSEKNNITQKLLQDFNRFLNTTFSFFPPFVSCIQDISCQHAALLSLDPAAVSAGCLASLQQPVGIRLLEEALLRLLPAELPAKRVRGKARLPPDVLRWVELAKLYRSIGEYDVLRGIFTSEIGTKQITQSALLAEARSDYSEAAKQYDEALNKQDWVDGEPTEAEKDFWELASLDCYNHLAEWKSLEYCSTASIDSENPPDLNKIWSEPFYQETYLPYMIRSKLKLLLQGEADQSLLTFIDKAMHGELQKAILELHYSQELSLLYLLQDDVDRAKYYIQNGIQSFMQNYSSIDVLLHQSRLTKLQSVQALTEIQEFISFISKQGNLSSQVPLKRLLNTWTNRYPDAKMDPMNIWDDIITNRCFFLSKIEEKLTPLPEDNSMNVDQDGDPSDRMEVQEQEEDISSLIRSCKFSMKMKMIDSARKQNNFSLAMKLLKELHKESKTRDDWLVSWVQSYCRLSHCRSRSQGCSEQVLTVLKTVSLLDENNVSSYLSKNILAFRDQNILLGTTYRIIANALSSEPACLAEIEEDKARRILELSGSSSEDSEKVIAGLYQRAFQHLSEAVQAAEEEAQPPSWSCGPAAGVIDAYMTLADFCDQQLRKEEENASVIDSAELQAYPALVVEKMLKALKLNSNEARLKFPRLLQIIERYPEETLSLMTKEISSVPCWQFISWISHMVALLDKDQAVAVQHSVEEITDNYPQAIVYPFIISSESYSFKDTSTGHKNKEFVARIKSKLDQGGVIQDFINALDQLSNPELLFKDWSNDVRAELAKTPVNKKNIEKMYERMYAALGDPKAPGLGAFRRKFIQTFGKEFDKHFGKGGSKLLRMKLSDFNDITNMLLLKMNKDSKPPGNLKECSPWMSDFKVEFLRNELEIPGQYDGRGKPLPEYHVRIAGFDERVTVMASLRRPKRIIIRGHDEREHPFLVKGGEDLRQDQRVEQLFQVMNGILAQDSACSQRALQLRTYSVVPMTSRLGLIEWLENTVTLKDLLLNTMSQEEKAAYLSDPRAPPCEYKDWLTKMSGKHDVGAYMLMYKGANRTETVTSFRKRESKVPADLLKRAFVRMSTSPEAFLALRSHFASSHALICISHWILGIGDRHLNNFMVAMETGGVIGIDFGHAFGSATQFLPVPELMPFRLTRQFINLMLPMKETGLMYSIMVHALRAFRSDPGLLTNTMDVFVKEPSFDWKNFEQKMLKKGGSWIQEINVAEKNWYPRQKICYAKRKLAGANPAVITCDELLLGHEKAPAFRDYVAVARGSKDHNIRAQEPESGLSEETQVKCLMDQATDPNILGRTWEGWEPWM
Sequence of Heat shock protein HSP 90-beta (P08238 whole entry): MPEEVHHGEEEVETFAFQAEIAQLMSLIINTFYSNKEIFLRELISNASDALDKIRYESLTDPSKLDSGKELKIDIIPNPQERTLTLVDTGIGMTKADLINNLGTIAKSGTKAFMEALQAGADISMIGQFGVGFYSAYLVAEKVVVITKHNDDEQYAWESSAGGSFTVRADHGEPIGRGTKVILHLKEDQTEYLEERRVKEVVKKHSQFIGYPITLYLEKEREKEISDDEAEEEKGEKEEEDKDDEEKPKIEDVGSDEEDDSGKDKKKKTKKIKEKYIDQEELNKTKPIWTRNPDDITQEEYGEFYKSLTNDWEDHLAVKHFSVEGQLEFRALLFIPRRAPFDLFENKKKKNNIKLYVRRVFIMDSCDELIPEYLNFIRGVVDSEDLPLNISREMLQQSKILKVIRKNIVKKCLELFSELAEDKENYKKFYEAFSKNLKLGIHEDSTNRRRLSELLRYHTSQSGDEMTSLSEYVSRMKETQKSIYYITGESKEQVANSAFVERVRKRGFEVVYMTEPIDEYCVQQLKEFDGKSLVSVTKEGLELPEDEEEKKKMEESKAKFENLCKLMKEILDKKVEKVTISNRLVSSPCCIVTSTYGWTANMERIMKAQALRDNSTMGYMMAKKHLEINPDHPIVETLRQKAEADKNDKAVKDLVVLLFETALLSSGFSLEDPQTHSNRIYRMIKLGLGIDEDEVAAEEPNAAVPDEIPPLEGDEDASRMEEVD

IC50 [1]: 0.12 µM
Compound: CC(=O)c1ccc(N2CCOCC2)cc1O

IC50 [2]: 15 µM
Compound: COc1cc(C=O)c([N+](=O)[O-])cc1OC

IC50 [3]: 0.62 µM
Compound: Nc1ncc(-c2ccccc2)nc1C(=O)Nc1ccccc1

Compound: CS(=O)(=O)c1ccc(-c2cnc(N)c(C(=O)Nc3ccccc3)n2)cc1
IC50 [4]: 0.026 µM

Ki [4]: 0.006 µM
Compound: CC(CN(C)C)S(=O)(=O)c1ccc(-c2cnc(N)c(C(=O)Nc3ccccc3)n2)cc1 (stereo not drawn)

IC50 [3]: 0.13 µM
Compound: CCc1[nH]c(/C=C2\C(=O)Nc3ccc(S(=O)(=O)Nc4ccccc4)cc32)c(CC)c1CCC(=O)O

IC50 [2]: 30 µM
Compound: COc1cc(Br)c(C=O)cc1OC

IC50 [1]: 0.034 µM
Compound: O=c1cc(-c2ccccc2)oc2c(-c3ccccc3)c(N3CCOCC3)cc(O)c12

IC50 [4]: 1.2 µM and 2.5 µM
Compound: Cc1ccc2c(sc3ccccc32)c1-c1cccc2c(=O)cc(N3CCOCC3)oc12

IC50 [5]: 0.6 µM
Compound: C=C1C(=O)OC[C@@H]1C(=O)N1Cc2cc3ccccc3nc2C1

IC50 [5]: 0.25 µM
Compound: C=C1C(=O)OCC1(C(=O)OCC)C(=O)OCC

IC50 [3]: 8 µM
Compound: N#Cc1cc(-c2ccncc2)c(/C=N/N)nc1O

IC50 [4]: 6.1 µM | IC50 [6]: > 500 µM | EC50 [7]: 4 µM
Compound: CO[C@@H]1/C=C/C=C(\C)C(=O)NC2=CC(=O)C(NCCCCCCOc3ccc4c(=O)cc(N5CCOCC5)oc4c3)=C(C[C@@H](C)C[C@@H](OC)[C@@H](O)[C@H](C)/C=C(\C)[C@H]1OC(N)=O)C2=O (stereo in doubt)

IC50 [8]: 7.3 µM
Compound: COc1cc2c(c(OC)c1OC)-c1c(cc3c(c1OC)OCO3)CC(C)C(C)C2 (stereo not drawn) [SCHISANDRIN B]

IC50 [9]: 100 µM
Compound: CN1CCN(CCCN2c3ccccc3Sc3ccc(C(F)(F)F)cc32)CC1 [TRIFLUOPERAZINE]

IC50 [2]: 1500 µM
Compound: COc1cc(C=O)ccc1O [VANILLIN]
